In patent US7880059B2, “Production of proanthocyanidins to improve forage quality” (The Samuel Roberts Noble Foundation, priority 2007, dated 2011):

T1: UGT78G1 (Medicago truncatula, UniProt A6XNC6)
T1 sequence (A6XNC6 1-454): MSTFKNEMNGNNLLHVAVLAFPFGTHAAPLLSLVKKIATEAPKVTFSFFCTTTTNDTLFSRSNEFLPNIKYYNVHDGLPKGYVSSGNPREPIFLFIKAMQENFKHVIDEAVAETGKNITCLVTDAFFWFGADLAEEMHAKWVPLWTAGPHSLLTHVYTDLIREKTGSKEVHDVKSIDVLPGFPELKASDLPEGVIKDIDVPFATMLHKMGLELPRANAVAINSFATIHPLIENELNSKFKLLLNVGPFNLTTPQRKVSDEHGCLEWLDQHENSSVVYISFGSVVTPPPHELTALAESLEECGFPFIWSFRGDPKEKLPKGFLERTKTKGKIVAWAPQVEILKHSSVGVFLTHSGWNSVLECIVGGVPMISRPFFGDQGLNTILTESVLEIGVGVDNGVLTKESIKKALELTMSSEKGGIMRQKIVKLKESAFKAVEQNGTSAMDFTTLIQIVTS


Tests used:
UGT78G1 [1] = biological target: T1, UGT78G1; assay: Kinetic analysis of UGT78G1 (GT83F) with (iso)flavonoid acceptor substrates, UDP-[14C]-glucose donor; details: for Kcat / Vmax / Km: recombinant UGT78G1, donor UDP-glucose, 30° C., pH 7.0; for Kcat/Km ratio: unit not given; for substrate quality for UGT78G1 in vitro / Vmax compared with that for most of the other substrates: in words
Protocol: The PCR product was purified, ligated to pGEMTeasy vector (Promega, Madison, Wis., USA), sequenced, excised and re-cloned between the BamHI and NotI sites of pET28a(+) (Novagen, Madison, Wis., USA) with a hexahistidine tag and a thrombin cleavage site. E. coli BL21 (DE3) cells harboring the expression construct were grown to an OD600 of 0.4-0.5, and expression was initiated by addition of isopropyl 1-thio-β-D-galactopyranoside (IPTG) at a final concentration of 0.2 mM, with further incubation with shaking overnight at 16° C. The enzyme was purified from E. coli lysates by nickel affinity chromatography.
Reactions were stopped with TCA after 15 min incubation at 30° C. Samples were extracted with 250 μl of ethyl acetate, and 200 μl were taken for liquid scintillation counting (Beckman LS6500). Data were analyzed using Hyper32 software for the analysis of enzyme-kinetic data (J. S. Easterby, University of Liverpool, Liverpool, UK; available at www.liv.ac.uk/˜jse/software.html).

UGT78G1 [2] = biological target: T1, UGT78G1; assay: UGT78G1 enzyme reactions with acceptor substrates, products analyzed by HPLC; format: biochemical; design: hexahistidine tag with thrombin cleavage site (pET28a(+)) (N); made in house; host or cells: E. coli BL21 (DE3)
Excerpt: Reactions were stopped with TCA and products analyzed by HPLC as described above.

UGT78G1 [3] = biological target: T1, UGT78G1; design: hexahistidine tag with thrombin cleavage site (pET28a(+)) (N); made in house; host or cells: E. coli BL21 (DE3); details: in vitro (Modolo et al, 2007); cited from earlier work
[4] = substrate: O=c1c(O)c(-c2ccc(O)c(O)c2)oc2cc(O)cc(O)c12; assay: purified protein, by the assay type; details: other: recombinant UGT78G1, donor UDP-glucose, 30° C., pH 7.0
[5] = substrate: O=c1c(O)c(-c2ccc(O)cc2)oc2cc(O)cc(O)c12; assay: purified protein, by the assay type; details: other: recombinant UGT78G1, donor UDP-glucose, 30° C., pH 7.0
[6] = substrate: O=c1c(-c2ccc(O)cc2)coc2cc(O)cc(O)c12; assay: purified protein, by the assay type; details: other: recombinant UGT78G1, donor UDP-glucose, 30° C., pH 7.0
[7] = substrate: O=c1cc(-c2ccc(O)cc2)oc2cc(O)cc(O)c12; assay: purified protein, by the assay type; details: other: recombinant UGT78G1, donor UDP-glucose, 30° C., pH 7.0

Row | Molecule | Kcat (UGT78G1 [1]) | Vmax (UGT78G1 [1]) | position of glycosylation by UGT78G1 (UGT78G1 [2]) | Km (UGT78G1 [1]) | also measured
1 | O=c1c(-c2ccc(O)cc2)coc2cc(O)cc(O)c12 [genistein] | 0.004 s⁻¹ | 1.2050 µmol/min | 7-O-position |  | Km of genistein relative to Km of daidzein (UGT78G1 [1]; relative to daidzein): 23 fold; Kcat/Km ratio (UGT78G1 [1]): 1,098
2 | cyanidin | 0.0068 s⁻¹ | 0.2025 µmol/min |  | 52 µM | substrate quality for UGT78G1 in vitro (UGT78G1 [1]): relatively poor substrates; activity of UGT78G1 with substrate (UGT78G1 [3]): shows activity
3 | COc1ccc(-c2coc3cc(O)cc(O)c3c2=O)cc1 [biochanin A (4′-methoxy genistein)] | 0.012 s⁻¹ | 0.3666 µmol/min | 7-O-position | 11.7 µM | 
4 | COc1ccc(-c2coc3cc(O)ccc3c2=O)cc1 [formononetin] | 0.0029 s⁻¹ | 0.0879 µmol/min | 7-O-position | 1.5 µM | preference (Kcat/Km) for formononetin over daidzein (UGT78G1 [1]; relative to daidzein): about 2 fold
5 | Oc1ccc(-c2[o+]c3cc(O)cc(O)c3cc2O)cc1 [pelargonidin] | 0.0057 s⁻¹ | 0.1698 µmol/min |  | 71.8 µM | substrate quality for UGT78G1 in vitro (UGT78G1 [1]): relatively poor substrates; activity of UGT78G1 with substrate (UGT78G1 [3]): shows activity
6 | O=c1cc(-c2ccc(O)cc2)oc2cc(O)cc(O)c12 [apigenin] |  |  | 7-O-position |  | Kcat/Km ratio (UGT78G1 [1]): 1,534
7 | O=c1c(O)c(-c2ccc(O)cc2)oc2cc(O)cc(O)c12 [kaempferol] | 0.053 s⁻¹ | 1.5830 µmol/min | 3-position |  | Vmax compared with that for most of the other substrates (UGT78G1 [1]): much higher
8 | O=c1c(-c2ccc(O)cc2)coc2cc(O)ccc12 [daidzein] |  |  |  | 1.6 µM | 
9 | O=c1c(O)c(-c2ccc(O)c(O)c2)oc2cc(O)cc(O)c12 [quercetin] | 0.029 s⁻¹ | 0.8557 µmol/min | 3-position |  | Vmax compared with that for most of the other substrates (UGT78G1 [1]): much higher
10 | UGT78G1 (Medicago truncatula) (protein) MSTFKNEMNGNNLLHVAVLAFPFGTHAAPLLSLVKKIATEAPKVTFSFFCTTTTNDTLFSRSNEFLPNIKYYNVHDGLPKGYVSSGNPREPIFLFIKAMQENFKHVIDEAVAETGKNITCLVTDAFFWFGADLAEEMHAKWVPLWTAGPHSLLTHVYTDLIREKTGSKEVHDVKSIDVLPGFPELKASDLPEGVIKDIDVPFATMLHKMGLELPRANAVAINSFATIHPLIENELNSKFKLLLNVGPFNLTTPQRKVSDEHGCLEWLDQHENSSVVYISFGSVVTPPPHELTALAESLEECGFPFIWSFRGDPKEKLPKGFLERTKTKGKIVAWAPQVEILKHSSVGVFLTHSGWNSVLECIVGGVPMISRPFFGDQGLNTILTESVLEIGVGVDNGVLTKESIKKALELTMSSEKGGIMRQKIVKLKESAFKAVEQNGTSAMDFTTLIQIVTS |  |  |  |  | Km [4]: 28.7 µM; Km [5]: 89.8 µM; Km [6]: 36.7 µM; Km [7]: 1.5 µM; Vmax [7]: 0.0688 µmol/min; kcat [7]: 0.0023 s⁻¹; kcat/Km [7]: 1530 M⁻¹ s⁻¹
